This assay deals with T1, γ-secretase (cleavage of rat c-Ret with HA tag in HEK293 cells) (Homo sapiens, UniProt P49768).
T1 construct: endogenous in cells; host or cells: 293/EBNA-1 cell strain (HEK293), transiently transfected with rat c-Ret-HA only
Briefly: Analysis of c-Ret processing in c-Ret-transfected 293/EBNA-1 cell strain (Western blotting with anti-HA antibody). The format is cell-based. The arrangement: dose or concentration left out as unconfirmed. Particulars: Compound E added to culture broth, one day; 293/EBNA-1 (HEK293) cells transfected with rat c-Ret-HA; versus untreated sample. As to the method: Whether or not c-Ret is a substrate for γ-secretase was evaluated using HEK293 cells expressing a gene encoding c-Ret with an HA tag added to its C-terminus, in the presence of a γ-secretase inhibitor. As the γ-secretase inhibitor, (2S)-2-{[(3,5-difluorophenyl)acetyl]amino}-N-[(3S)-1-methyl-2-oxo-5-phenyl-2,3-dihydro-1H-1,4-benzodiazepin-3-yl]propanamide (hereinafter, sometimes referred to as “Compound E”) (Alexis Biochemicals) was used. 293/EBNA-1 cell strain (Invitrogen) was cultured in 6-well dishes containing 10% FBS (Hyclone)/DMEM (Invitrogen) under 5% CO2 at 37° C., followed by transfection thereinto of the gene encoding rat c-Ret with an HA tag added to its C-terminus using Lipofectamine 2000 (Invitrogen). After one day culture under the same conditions, 50 mM Compound E (Alexis Biochemicals) was added to the culture broth. Cells were cultured for another day under the same conditions. Then, the transfected HEK293 cells were collected with PBS (Sigma) and sonicated with a sonicator (Taitec VP-5S) to disrupt cells. Then, the quantity of protein was determined with Protein Assay Kit (BioRad). Samples (2 μg each) were taken from proteins obtained from Compound E-added cells and Compound E-not added cells, respectively, and subjected to SDS-PAGE, followed by Western blotting with an anti-HA antibody (Roche) (final concentration: 0.2 μg/ml). […]

As for `C[C@H](NC(=O)Cc1cc(F)cc(F)c1)C(=O)N[C@H]1N=C(c2ccccc2)c2ccccc2N(C)C1=O` [Compound E, (2S)-2-{[(3,5-difluorophenyl)acetyl]amino}-N-[(3S)-1-methyl-2-oxo-5-phenyl-2,3-dihydro-1H-1,4-benzodiazepin-3-yl]propanamide], the “effect on cleavage of c-Ret by γ-secretase (c-Ret C terminal fragment band, Western blot)” value was “a band around 50 kDa (CTF) was accumulated specifically as a c-Ret undegraded product”.

The record behind these values is patent publication US20100190184A1, “SCREENING METHOD UTILIZING NOVEL SUBSTRATE C-RET FOR GAMMA-SECRETASE” (Eisai R & D Management Co., Ltd., priority 2007, published 2010).
